This passage reports Binding % results from patent US10829458B2 (Araxes Pharma LLC, priority 2015, dated 2020).

This assay has as its target T1, KRAS G12C 1-169, his-tagged protein, GDP-loaded (Homo sapiens, UniProt P01116, G12C).
T1 construct: KRAS G12C 1-169, his-tagged protein, GDP-loaded
The experiment in a line: Biochemical assay: covalent modification of KRAS G12C measured by mass spectrometry (RapidFire/TOF or Q-Exactive). As to conditions: covalent binding to KRAS G12C; compounds of structure (I). The procedure, abridged: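 Covalent adduct formation read by intact-mass spectrometry (TOF or Q Exactive Plus, charge envelopes deconvoluted into modified and unmodified species) after formic acid quench. Reactions contained 2 μM GDP-bound KRAS G12C 1-169 (his-tag) in Hepes/NaCl/MgCl2 buffer plus 10, 30 or 100 μM final compound, held 30 min, 2 h or 24 h at room temperature.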
As to `C=CC(=O)N1CCN(c2nc(NCCc3ccccn3)nc3c(F)c(-c4c(O)cccc4F)c(Cl)cc23)CC1` [Example I-153, 1-(4-(6-chloro-8-fluoro-7-(2-fluoro-6-hydroxyphenyl)-2-(2-(pyridin-2-yl)ethylamino)quinazolin-4-yl)piperazin-1-yl) prop-2-en-1-one], the Binding % result is “+++ (+++ indicates binding activity greater than 90%)”.

With `C=CC(=O)N1CCN(c2nc(OC)nc3c(OC)c(-c4c(O)cccc4F)c(Cl)cc23)CC1` [Example I-154, 1-(4-(6-chloro-7-(2-fluoro-6-hydroxyphenyl)-2,8-dimethoxy-quinazolin-4-yl)piperazin-1-yl) prop-2-en-1-one], the Binding % entry is recorded as “+++ (+++ indicates binding activity greater than 90%)”.

`C=CC(=O)N1CCN(c2nc(N3CC4(CCOC4)C3)nc3c(F)c(-c4c(O)cccc4F)c(Cl)cc23)CC1` [Example I-155, 1-(4-(6-chloro-8-fluoro-7-(2-fluoro-6-hydroxyphenyl)-2-(6-oxa-2-azaspiro[3,4]octan-2-yl)quinazolin-4-yl)piperazin-1-yl) prop-2-en-1-one]: the Binding % result is recorded as “+++ (+++ indicates binding activity greater than 90%)”.

For `C=CC(=O)N1CCN(c2nc(N3CC4(CCOC4)C3)nc3c(F)c(-c4c(C)ccc5[nH]ncc45)c(Cl)cc23)CC1` [Example I-156, 1-(4-(6-chloro-8-fluoro-7-(5-methyl-1H-indazol-4-yl)-2-(6-oxa-2-azaspiro[3,4]octan-2-yl)quinazolin-4-yl)piperazin-1-yl) prop-2-en-1-one], the Binding % result is on record as “+++ (+++ indicates binding activity greater than 90%)”.

Consider `C=CC(=O)N1CCN(c2nc(N3CC4(CN(C)C4)C3)nc3c(F)c(-c4c(C)ccc5[nH]ncc45)c(Cl)cc23)CC1` [Example I-157, 1-(4-(6-chloro-8-fluoro-7-(5-methyl-1H-indazol-4-yl)-2-(6-methyl-2,6-diazaspiro [3.3]heptan-2-yl)quinazolin-4-yl)piperazin-1-yl) prop-2-en-1-one], for which the Binding % result is reported as “+++ (+++ indicates binding activity greater than 90%)”.

With `C=CC(=O)N1CCN(c2nc(OCC3CN(c4ncccc4F)C3)nc3c(F)c(-c4c(C)ccc5[nH]ncc45)c(Cl)cc23)CC1` [Example I-158, 1-(4-(6-chloro-8-fluoro-2-((1-(3-fluoropyridin-2-yl)azetidin-3-yl)methoxy)-7-(5-methyl-1H-indazol-4-yl)quinazolin-4-yl)piperazin-1-yl) prop-2-en-1-one], the Binding % entry is listed as “+++ (+++ indicates binding activity greater than 90%)”.

In the case of `C=CC(=O)N1CCN(c2nc(N3CC(CN(C)C)C3)nc3c(F)c(-c4c(C)ccc5[nH]ncc45)c(Cl)cc23)CC1` [Example I-159, 1-(4-(6-chloro-2-(3-((dimethyl-amino)methyl)azetidin-1-yl)-8-fluoro-7-(5-methyl-1H-indazol-4-yl)quinazolin-4-yl)piperazin-1-yl) prop-2-en-1-one], the Binding % entry was “+++ (+++ indicates binding activity greater than 90%)”.

As to `C=CC(=O)N1CCN(c2nc(NCC3CCN(C4CC4)CC3)nc3c(F)c(-c4c(C)ccc5[nH]ncc45)c(Cl)cc23)CC1` [Example I-160, 1-(4-(6-chloro-2-((1-cyclo-propyl-piperidin-4-yl)methylamino)-8-fluoro-7-(5-methyl-1H-indazol-4-yl)quinazolin-4-yl)piperazin-l-yl) prop-2-en-1-one], the Binding % entry is reported as “+++ (+++ indicates binding activity greater than 90%)”.

Regarding `C=CC(=O)N1CCN(c2nc(NCCN(CC)CC)nc3c(F)c(-c4c(C)ccc5[nH]ncc45)c(Cl)cc23)CC1` [Example I-161, 1-(4-(6-chloro-2-(2-(diethyl-amino)ethylamino)-8-fluoro-7-(5-methyl-1H-indazol-4-yl)quinazolin-4-yl)piperazin-1-yl) prop-2-en-1-one], the Binding % entry is given as “+++ (+++ indicates binding activity greater than 90%)”.
